Experimental data from patent publication US20240352066A1, “ANTIMICROBIAL COMPOUNDS AND THE METHOD OF USE” (priority 2021, published 2024).
Converted amounts (≈) assume the structure as drawn. Where a SMILES comes first, the peptide text is derived from it. [ ]: non-standard residue; d: D form. N(tridecyl)Gly = CCCCCCCCCCCCCNCC(=O)O; Gly(N-2-aminoethyl) = NCCNCC(=O)O; Gly(N-cHex) = O=C(O)CNC1CCCCC1; Nlys = NCCCCNCC(=O)O

Key:
A. baumannii = format: cell-based, Acinetobacter baumannii; details: 24 h
Method: The minimum inhibitory concentration (MIC) of peptoids against the ESKAPE bacteria (Enterococcus faecium ATCC 6569; Staphylococcus aureus ATCC 29213; Klebsiella pneumoniae ATCC 13883; Acinetobacter 55aumannii ATCC 19606; Pseudomonas aeruginosa ATCC 25619; Enterococcus faecalis ATCC 29212; and Escherichia coli ATCC 25922) was determined following CLSI guidelines (CLSI. Methods for Dilution Antimicrobial Susceptibility Tests for Bacteria That Grow Aerobically, 11th Edition. (Clinical and Laboratory Standards Institute, 2018). The MIC against Mycobacterium smegmatis was also determined following CLSI guidelines (Woods et al., Susceptibility Testing of Mycobacteria, Nocardiae, and Other Aerobic Actinomycetes, 2nd edition. (2011)). Colonies picked from streaked tryptic soy agar plates were added to tryptic soy broth (TSB) to achieve a turbidity of OD600=0.08-0.15. Inoculant was diluted 1:200 into cation adjust Mueller Hinton Broth (CAVHB) and 90 μL was plated into each well of a 96 well black-wall plate. […] Following incubation for the ESKAPE bacteria, PrestoBlue (10 μL) was added to each well and incubated at 37° C. for one hour before measuring fluorescence on a SpectraMax M5 plate reader (Ex. 555 nm; Em. 585 nm). Following incubation for M. smegmatis, wells were scored following CLSI guidelines to determine MIC. […]

in vitro = format: cell-based, human; details: human
Method: (§1) Hepatocellular carcinoma (HepG2), mouse fibroblast (3T3), human lung (HPL1A), and human keratinocyte (HaCat) cells were cultured in Dulbecco modified eagle media (DMEM) containing 10% fetal bovine serum (FBS) and 1% penicillin, streptomycin, and glutamine (PSG) at 37° C. and 5% CO2. Cells were collected and adjusted to […] to 4×10^5 cells/mL in phenol-red free DMEM and plated (100 μL) 96 well plates. 2-fold serial dilutions of 10× peptoid (11.1 μL) were added to each well in triplicate. Water (vehicle) was used as a negative control. Plates were incubated at 37° C. in 5% CO2 for 72 hours. Thiazolyl blue tetrazolium bromide (MTT) was added to each well (5 mg/mL; 20 μL) and incubated for 3 hours. Media was removed, DMSO (100 μL) was added, and plates were incubated at 37° C. for 10 minutes. Plates were read on a SpectraMax M5 plate reader (Abs. 570 nm). The concentration of compound resulting in a 50% reduction in growth compared to control (toxicity dose 50%; TD50) was determined using GraFit. This procedure was repeated three times on separate days.

HaCat keratinocyte cells = experiment: in vitro; format: cell-based, human
Method: as §1

HPL1A lung cells = experiment: in vitro; format: cell-based, human
Method: as §1

C. neoformans = experiment: microbe, parasite or virus in culture; format: cell-based, Cryptococcus neoformans; details: 72 h
Method: Cell solution was diluted into RPMI-MOPS (1:100) followed by another dilution into RPMI-MOPS (1:20). […] Plates were incubated for 72 hours at 35° C. MIC was determined as the lowest concentration of individual compound or combined compounds inhibiting pathogen growth. Fractional inhibitory concentration index (FICi) was determine using the following equation: FICi values were interpreted as follows: FICi<0.5 synergistic; 0.5≤FICi≤4 indifferent; FICi>4 antagonist (Johnson et al., Antimicrob. Agents Chemother. 48, 693-715 (2004)).

CCCCCCCCCCCCCNCC(=O)N(CC(=O)N(CCCCN)CC(=O)N(CCN)CC(=O)N(CC(N)=O)C1CCCCC1)C1CCCCC1 [RMG8-8, Ntri-Ncha-Nlys-Nae-Ncha] (H-[N(tridecyl)Gly][Gly(N-cHex)][Nlys][Gly(N-2-aminoethyl)][Gly(N-cHex)]-NH2)
MIC A. baumannii (A. baumannii): 25 µg/mL (≈ 32.8 µM) | CC50 at 72 h (in vitro; HPL1A lung cells): 74 ± 8 µg/mL (≈ 97 µM) | CC50 at 72 h (in vitro; HaCat keratinocyte cells): 54 ± 10 µg/mL (≈ 70.8 µM) | TD50 HaCat (HaCat keratinocyte cells): 54 µg/mL | TD50 HPL1A (HPL1A lung cells): 74 µg/mL | MIC (compound alone) (C. neoformans): 1.56 µg/mL
